Source: the supplement of paper PMC10721915
± gives the standard deviation of the averaged measurements.

Compound: COc1ccc([C@@H](O)c2cc(-c3ncnc4cc(N5CCOCC5)ccc34)c(F)cc2Cl)nn1 [peposertib]
Test: relative cell growth vs untreated control (GI, NCI-DTP normalisation with time-zero) (fraction of control growth); higher = more growth / less inhibition
Conditions: treatment time: 120 h
Description: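 Cancer cell lines were treated with peposertib (DNA-PK inhibitor) combined with gamma ionizing radiation (0, 2, 3 or 6 Gy) for 120 h, starting 48 h after seeding. Read-out was sulforhodamine B total-protein staining, normalised to untreated control and time-zero wells (NCI-DTP GI convention).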

[1] = peposertib concentration 0.00488 µM, gamma irradiation dose (Gy): 0
[2] = peposertib concentration 0.0195 µM, gamma irradiation dose (Gy): 0
[3] = peposertib concentration 0.0781 µM, gamma irradiation dose (Gy): 0
[4] = peposertib concentration 0.313 µM, gamma irradiation dose (Gy): 0
[5] = peposertib concentration 1.25 µM, gamma irradiation dose (Gy): 0
[6] = peposertib concentration 5 µM, gamma irradiation dose (Gy): 0
[7] = peposertib concentration 0.00488 µM, gamma irradiation dose (Gy): 3
[8] = peposertib concentration 0.0195 µM, gamma irradiation dose (Gy): 3
[9] = peposertib concentration 0.0781 µM, gamma irradiation dose (Gy): 3
[10] = peposertib concentration 0.313 µM, gamma irradiation dose (Gy): 3
[11] = peposertib concentration 1.25 µM, gamma irradiation dose (Gy): 3
[12] = peposertib concentration 5 µM, gamma irradiation dose (Gy): 3

Test System: MDAMB435
- relative cell growth [1]: 0.989
- relative cell growth [2]: 1.03
- relative cell growth [3]: 1.02
- relative cell growth [4]: 0.924
- relative cell growth [5]: 0.721
- relative cell growth [6]: 0.207

Test System: U87MG
- relative cell growth [1]: 1.23
- relative cell growth [2]: 1.06
- relative cell growth [3]: 1.02
- relative cell growth [4]: 0.733
- relative cell growth [5]: 0.257
- relative cell growth [6]: 0.116

Test System: SKMEL5
- relative cell growth [1]: 1.07
- relative cell growth [2]: 1.07
- relative cell growth [3]: 1.11
- relative cell growth [4]: 1.08
- relative cell growth [5]: 0.72
- relative cell growth [6]: 0.202

Test System: SW620
- relative cell growth [1]: 1.03 ± 0.033
- relative cell growth [7]: 0.3
- relative cell growth [2]: 1.01 ± 0.048
- relative cell growth [8]: 0.245
- relative cell growth [3]: 0.992 ± 0.054
- relative cell growth [9]: 0.131
- relative cell growth [4]: 0.94 ± 0.046
- relative cell growth [10]: 0.044
- relative cell growth [5]: 0.833 ± 0.15
- relative cell growth [11]: 0.0135
- relative cell growth [6]: 0.675 ± 0.2
- relative cell growth [12]: 0.0174

Test System: HEPG2
- relative cell growth [1]: 0.956
- relative cell growth [2]: 0.977
- relative cell growth [3]: 0.977
- relative cell growth [4]: 0.91
- relative cell growth [5]: 0.603
- relative cell growth [6]: 0.211

Test System: HT29
- relative cell growth [1]: 0.978 ± 0.029
- relative cell growth [7]: 0.885
- relative cell growth [2]: 0.9825 ± 0.0091
- relative cell growth [8]: 0.857
- relative cell growth [3]: 0.974 ± 0.023
- relative cell growth [9]: 0.642
- relative cell growth [4]: 0.906 ± 0.03
- relative cell growth [10]: 0.152
- relative cell growth [5]: 0.658 ± 0.021
- relative cell growth [11]: 0.0553
- relative cell growth [6]: 0.252 ± 0.0096
- relative cell growth [12]: 0.0433

Test System: HS729
- relative cell growth [1]: 1.05
- relative cell growth [2]: 1.06
- relative cell growth [3]: 1.02
- relative cell growth [4]: 0.867
- relative cell growth [5]: 0.716
- relative cell growth [6]: 0.422

Test System: RD
- relative cell growth [1]: 0.929
- relative cell growth [2]: 0.97
- relative cell growth [3]: 0.942
- relative cell growth [4]: 0.94
- relative cell growth [5]: 0.826
- relative cell growth [6]: 0.455

Test System: MT3
- relative cell growth [1]: 0.994
- relative cell growth [2]: 0.98
- relative cell growth [3]: 0.951
- relative cell growth [4]: 0.828
- relative cell growth [5]: 0.415
- relative cell growth [6]: 0.0961

Test System: J82
- relative cell growth [1]: 1.02
- relative cell growth [2]: 1.03
- relative cell growth [3]: 0.991
- relative cell growth [4]: 0.876
- relative cell growth [5]: 0.64
- relative cell growth [6]: 0.377

Test System: LOVO
- relative cell growth [1]: 1.01 ± 0.055
- relative cell growth [7]: 0.384
- relative cell growth [2]: 0.946 ± 0.026
- relative cell growth [8]: 0.357
- relative cell growth [3]: 0.83 ± 0.068
- relative cell growth [9]: 0.28
- relative cell growth [4]: 0.617 ± 0.11
- relative cell growth [10]: 0.186
- relative cell growth [5]: 0.348 ± 0.083
- relative cell growth [11]: 0.0588
- relative cell growth [6]: 0.16 ± 0.064
- relative cell growth [12]: 0.00966

Test System: MDAMB436
- relative cell growth [1]: 1.04
- relative cell growth [2]: 0.987
- relative cell growth [3]: 0.992
- relative cell growth [4]: 0.795
- relative cell growth [5]: 0.541
- relative cell growth [6]: 0.188

Test System: IGROV1
- relative cell growth [1]: 1.02
- relative cell growth [2]: 1.02
- relative cell growth [3]: 0.965
- relative cell growth [4]: 0.789
- relative cell growth [5]: 0.22
- relative cell growth [6]: -0.0182

Test System: SKMEL28
- relative cell growth [1]: 1
- relative cell growth [2]: 1.02
- relative cell growth [3]: 0.902
- relative cell growth [4]: 0.746
- relative cell growth [5]: 0.648
- relative cell growth [6]: 0.477

Test System: PLCPRF5
- relative cell growth [1]: 1.01
- relative cell growth [2]: 0.969
- relative cell growth [3]: 0.974
- relative cell growth [4]: 0.898
- relative cell growth [5]: 0.807
- relative cell growth [6]: 0.586

Test System: SUDHL6
- relative cell growth [1]: 0.943
- relative cell growth [2]: 0.915
- relative cell growth [3]: 0.816
- relative cell growth [4]: 0.254
- relative cell growth [5]: -0.0283
- relative cell growth [6]: -0.0413

Test System: SUDHL10
- relative cell growth [1]: 1.01
- relative cell growth [2]: 1.01
- relative cell growth [3]: 1.02
- relative cell growth [4]: 1.12
- relative cell growth [5]: 1.12
- relative cell growth [6]: 0.345

Test System: RAMOS
- relative cell growth [1]: 1.06
- relative cell growth [2]: 0.987
- relative cell growth [3]: 0.927
- relative cell growth [4]: 0.736
- relative cell growth [5]: 0.377
- relative cell growth [6]: 0.129

Test System: OVCAR4
- relative cell growth [1]: 1.03
- relative cell growth [2]: 1.01
- relative cell growth [3]: 0.983
- relative cell growth [4]: 0.875
- relative cell growth [5]: 0.858
- relative cell growth [6]: 0.633

Test System: UMUC3
- relative cell growth [1]: 1.06
- relative cell growth [2]: 1.06
- relative cell growth [3]: 0.997
- relative cell growth [4]: 0.932
- relative cell growth [5]: 0.819
- relative cell growth [6]: 0.5

Test System: L363
- relative cell growth [1]: 0.996
- relative cell growth [2]: 1
- relative cell growth [3]: 0.98
- relative cell growth [4]: 0.813
- relative cell growth [5]: 0.39
- relative cell growth [6]: 0.0471

Test System: OVCAR3
- relative cell growth [1]: 0.907
- relative cell growth [2]: 0.952
- relative cell growth [3]: 0.919
- relative cell growth [4]: 0.739
- relative cell growth [5]: 0.372
- relative cell growth [6]: 0.0464

Test System: A204
- relative cell growth [1]: 1.06
- relative cell growth [2]: 1.01
- relative cell growth [3]: 0.892
- relative cell growth [4]: 0.616
- relative cell growth [5]: 0.298
- relative cell growth [6]: 0.0711

Test System: MV411
- relative cell growth [1]: 0.937
- relative cell growth [2]: 0.935
- relative cell growth [3]: 0.924
- relative cell growth [4]: 0.793
- relative cell growth [5]: 0.383
- relative cell growth [6]: 0.0939

Test System: SKLMS1
- relative cell growth [1]: 0.903
- relative cell growth [2]: 0.977
- relative cell growth [3]: 0.896
- relative cell growth [4]: 0.593
- relative cell growth [5]: 0.435
- relative cell growth [6]: 0.169

Test System: MDAMB468
- relative cell growth [1]: 1.04
- relative cell growth [2]: 0.969
- relative cell growth [3]: 0.942
- relative cell growth [4]: 0.794
- relative cell growth [5]: 0.556
- relative cell growth [6]: 0.222

Test System: HT1080
- relative cell growth [1]: 1.08
- relative cell growth [2]: 1.09
- relative cell growth [3]: 1.08
- relative cell growth [4]: 1.11
- relative cell growth [5]: 1.11
- relative cell growth [6]: 1

Test System: NCIH82
- relative cell growth [1]: 0.982 ± 0.048
- relative cell growth [7]: 0.219
- relative cell growth [2]: 1.016 ± 0.0085
- relative cell growth [8]: 0.187
- relative cell growth [3]: 0.988 ± 0.034
- relative cell growth [9]: 0.11
- relative cell growth [4]: 0.892 ± 0.15
- relative cell growth [10]: 0.0372
- relative cell growth [5]: 0.718 ± 0.24
- relative cell growth [11]: 0.0097
- relative cell growth [6]: 0.422 ± 0.055
- relative cell growth [12]: 0.000329

Test System: WSUNHL
- relative cell growth [1]: 1.07
- relative cell growth [2]: 1.08
- relative cell growth [3]: 0.713
- relative cell growth [4]: 0.513
- relative cell growth [5]: 0.0836
- relative cell growth [6]: -0.0127

Test System: SAOS2
- relative cell growth [1]: 0.945
- relative cell growth [2]: 0.983
- relative cell growth [3]: 0.946
- relative cell growth [4]: 0.82
- relative cell growth [5]: 0.458
- relative cell growth [6]: 0.0757

Test System: DLD1
- relative cell growth [1]: 1.01 ± 0.015
- relative cell growth [7]: 0.55
- relative cell growth [2]: 0.997 ± 0.014
- relative cell growth [8]: 0.518
- relative cell growth [3]: 1 ± 0.042
- relative cell growth [9]: 0.389
- relative cell growth [4]: 0.959 ± 0.033
- relative cell growth [10]: 0.137
- relative cell growth [5]: 0.842 ± 0.09
- relative cell growth [11]: 0.0235
- relative cell growth [6]: 0.445 ± 0.091
- relative cell growth [12]: 0.00897

Test System: NCIH358M
- relative cell growth [1]: 1.004 ± 0.01
- relative cell growth [7]: 0.299
- relative cell growth [2]: 0.975 ± 0.03
- relative cell growth [8]: 0.27
- relative cell growth [3]: 0.963 ± 0.03
- relative cell growth [9]: 0.182
- relative cell growth [4]: 0.869 ± 0.1
- relative cell growth [10]: 0.181
- relative cell growth [5]: 0.695 ± 0.16
- relative cell growth [11]: 0.108
- relative cell growth [6]: 0.345 ± 0.078
- relative cell growth [12]: 0.0702

Test System: NCIH460
- relative cell growth [1]: 1.05 ± 0.025
- relative cell growth [7]: 0.302
- relative cell growth [2]: 1.04 ± 0.02
- relative cell growth [8]: 0.384
- relative cell growth [3]: 1.02 ± 0.025
- relative cell growth [9]: 0.181
- relative cell growth [4]: 0.934 ± 0.16
- relative cell growth [10]: 0.0919
- relative cell growth [5]: 0.661 ± 0.37
- relative cell growth [11]: 0.044
- relative cell growth [6]: 0.177 ± 0.11
- relative cell growth [12]: 0.0283

Test System: MINO
- relative cell growth [1]: 0.833
- relative cell growth [2]: 0.904
- relative cell growth [3]: 0.937
- relative cell growth [4]: 0.73
- relative cell growth [5]: 0.326
- relative cell growth [6]: 0.0668

Test System: HL60
- relative cell growth [1]: 0.998
- relative cell growth [2]: 0.975
- relative cell growth [3]: 0.929
- relative cell growth [4]: 0.808
- relative cell growth [5]: 0.526
- relative cell growth [6]: 0.238

Test System: A2780
- relative cell growth [1]: 1.03
- relative cell growth [2]: 1.04
- relative cell growth [3]: 1.02
- relative cell growth [4]: 0.999
- relative cell growth [5]: 0.858
- relative cell growth [6]: 0.156

Test System: A549
- relative cell growth [1]: 1.031 ± 0.01
- relative cell growth [7]: 0.766
- relative cell growth [2]: 1.02 ± 0.014
- relative cell growth [8]: 0.613
- relative cell growth [3]: 0.966 ± 0.019
- relative cell growth [9]: 0.256
- relative cell growth [4]: 0.782 ± 0.071
- relative cell growth [10]: 0.0863
- relative cell growth [5]: 0.442 ± 0.079
- relative cell growth [11]: 0.0255
- relative cell growth [6]: 0.113 ± 0.013
- relative cell growth [12]: 0.0147

Test System: PANC1
- relative cell growth [1]: 0.969
- relative cell growth [2]: 0.974
- relative cell growth [3]: 0.956
- relative cell growth [4]: 0.92
- relative cell growth [5]: 0.741
- relative cell growth [6]: 0.411
